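Growth conditions: 96-well plates. Treatment: test compound, 48 hours, 5 concentrations. Analysis: linear interpolation between bracketing concentrations; unreached endpoints set to highest concentration. GI50 is the concentration that inhibits growth by half.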 Active and inactive are the calls of the source. Rule as the data show it: active = GI50 up to about 1.1 µM and inactive = higher.
Columns and labels:
Assay in all cases: inhibition of tumour cell growth, NCI panel, 48 h
EKVX = test system: EKVX
A498 = test system: A498
SK-MEL-5 = test system: SK-MEL-5
Hs-578T = test system: Hs-578T
TK-10 = test system: TK-10
IGROV-1 = test system: IGROV-1
MDA-N = test system: MDA-N
OVCAR-4 = test system: OVCAR-4
UACC-62 = test system: UACC-62
SK-OV-3 = test system: SK-OV-3
SF-295 = test system: SF-295
HOP-62 = test system: HOP-62
ACHN = test system: ACHN
NCI-H522 = test system: NCI-H522
M14 = test system: M14
NCI/ADR-RES = test system: NCI/ADR-RES
SF-539 = test system: SF-539
SK-MEL-28 = test system: SK-MEL-28
K562 = test system: K562
SNB-75 = test system: SNB-75

Row | SMILES | GI50 (EKVX) | GI50 (A498) | GI50 (SK-MEL-5) | GI50 (Hs-578T) | GI50 (TK-10) | GI50 (IGROV-1) | GI50 (MDA-N) | GI50 (OVCAR-4) | GI50 (UACC-62) | GI50 (SK-OV-3) | GI50 (SF-295) | GI50 (HOP-62) | GI50 (ACHN) | GI50 (NCI-H522) | GI50 (M14) | GI50 (NCI/ADR-RES) | GI50 (SF-539) | GI50 (SK-MEL-28) | GI50 (K562) | GI50 (SNB-75)
1 | CC(CCOc1ccc2ccc(=O)oc2c1)C1=CC(=O)C(C)(C)O1 (stereo not drawn) | 2.68 µM (inactive) | 1.95 µM (inactive) | 5.13 µM (inactive) | 2.38 µM (inactive) | 3.34 µM (inactive) | 3.2 µM (inactive) | 2.77 µM (inactive) | 5.73 µM (inactive) | 3.72 µM (inactive) | 3.53 µM (inactive) | 3.94 µM (inactive) | 5.12 µM (inactive) | 3.18 µM (inactive) | 1.51 µM (inactive) | 3.92 µM (inactive) | 2.12 µM (inactive) | 1.69 µM (inactive) | 2.9 µM (inactive) |  | 
2 | O=C(Cc1nccc2c1[nH]c1ccccc12)OC1C#CCSCC#C/C=C\1 (stereo not drawn) | 64.4 µM (inactive) | 78.5 µM (inactive) | > 100 µM (inactive) | > 100 µM (inactive) | > 100 µM (inactive) | > 100 µM (inactive) | > 100 µM (inactive) | > 100 µM (inactive) | > 100 µM (inactive) | > 100 µM (inactive) | 87.9 µM (inactive) | > 100 µM (inactive) | > 100 µM (inactive) | 44.2 µM (inactive) | > 100 µM (inactive) | > 100 µM (inactive) | > 100 µM (inactive) | > 100 µM (inactive) | 43 µM (inactive) | 
3 | O=C1C(Cl)C2(CC(/C=C/c3ccccc3)=NN2c2cccc(S(=O)(=O)O)c2)N1c1nc2ccccc2s1 (stereo not drawn) | 19.2 µM (inactive) | 19.3 µM (inactive) | 15.5 µM (inactive) | 30.9 µM (inactive) | 16.9 µM (inactive) | 8.55 µM (inactive) | 24.2 µM (inactive) | 16.4 µM (inactive) | 14 µM (inactive) |  |  |  | 16.6 µM (inactive) | 6.53 µM (inactive) | 17.2 µM (inactive) | 28.2 µM (inactive) | 15.3 µM (inactive) | 44.8 µM (inactive) | 21.4 µM (inactive) | 15.3 µM (inactive)
4 | N#CCN1c2ccccc2CCC1Cl (stereo not drawn) | > 10 µM (inactive) | > 10 µM (inactive) | > 10 µM (inactive) | > 10 µM (inactive) | > 10 µM (inactive) | > 10 µM (inactive) | > 10 µM (inactive) | > 10 µM (inactive) | > 10 µM (inactive) | > 10 µM (inactive) | > 10 µM (inactive) | > 10 µM (inactive) | > 10 µM (inactive) | > 10 µM (inactive) | > 10 µM (inactive) | > 10 µM (inactive) | > 10 µM (inactive) | > 10 µM (inactive) | > 10 µM (inactive) | 
5 | COC(=O)/C=C\C(C#N)(C#N)/N=C/c1ccc(Br)cc1 | 14.2 µM (inactive) | 16.2 µM (inactive) | 1.5 µM (inactive) | 17.6 µM (inactive) | 2.45 µM (inactive) | 14.3 µM (inactive) | 5.71 µM (inactive) | 8.83 µM (inactive) | 11.3 µM (inactive) | 18.8 µM (inactive) | 18.2 µM (inactive) | 16.7 µM (inactive) | 2.97 µM (inactive) | 0.489 µM (active) | 7.26 µM (inactive) | 20.2 µM (inactive) |  | 15.4 µM (inactive) | 3.4 µM (inactive) | 15 µM (inactive)
6 | COc1cccc(N(CN2C(=O)CCC2OC)C(C)=O)c1 (stereo not drawn) |  | > 100 µM (inactive) | > 100 µM (inactive) | > 100 µM (inactive) | > 100 µM (inactive) |  | > 100 µM (inactive) | > 100 µM (inactive) | > 100 µM (inactive) | > 100 µM (inactive) | > 100 µM (inactive) | > 100 µM (inactive) | > 100 µM (inactive) |  | > 100 µM (inactive) | > 100 µM (inactive) | > 100 µM (inactive) | > 100 µM (inactive) | > 100 µM (inactive) | > 100 µM (inactive)
7 | O=C1/C(=C\c2cccs2)Oc2ccccc21 | 25.9 µM (inactive) | 42.3 µM (inactive) | 51.6 µM (inactive) | 45.7 µM (inactive) | 90.6 µM (inactive) | 26.7 µM (inactive) | > 100 µM (inactive) | 31.5 µM (inactive) | 75.2 µM (inactive) | 38 µM (inactive) | 74 µM (inactive) | 39.9 µM (inactive) | 47.2 µM (inactive) | 39.8 µM (inactive) | 84.5 µM (inactive) | 54.7 µM (inactive) |  | > 100 µM (inactive) | 74.5 µM (inactive) | 55.7 µM (inactive)
8 | C=CC[C@@]12CCC(=O)C=C1CCCC2=O | > 100 µM (inactive) | > 100 µM (inactive) | > 100 µM (inactive) | > 100 µM (inactive) | > 100 µM (inactive) | > 100 µM (inactive) | > 100 µM (inactive) | > 100 µM (inactive) | > 100 µM (inactive) | > 100 µM (inactive) | > 100 µM (inactive) | > 100 µM (inactive) | > 100 µM (inactive) | > 100 µM (inactive) | > 100 µM (inactive) | > 100 µM (inactive) | > 100 µM (inactive) | > 100 µM (inactive) | > 100 µM (inactive) | 
9 | CC(=O)Oc1ccc(-c2cc3ccccc3oc2=O)cc1OC(C)=O | 21.8 µM (inactive) | 35.6 µM (inactive) |  | 35.9 µM (inactive) | 22.1 µM (inactive) |  | 25.8 µM (inactive) | 51.3 µM (inactive) |  |  | 28.2 µM (inactive) | 43.7 µM (inactive) | 16.8 µM (inactive) | 3.78 µM (inactive) | 21.6 µM (inactive) | 21.3 µM (inactive) | 21.6 µM (inactive) | 43.5 µM (inactive) | 27.5 µM (inactive) | 26.9 µM (inactive)
10 | CCOC(=O)C1(O)C(=O)C2=C3C(=O)OC(C4OC(=O)c5c(c(O)c(O)c(O)c5C31)-c1c(cc(O)c(O)c1O)C(=O)OC1COC(=O)c3cc(O)c(O)c(O)c3-c3c(cc(O)c(O)c3O)C(=O)OC14)[C@@H]2O (stereo partly drawn) | 13.4 µM (inactive) | > 100 µM (inactive) | 14.3 µM (inactive) | 30.8 µM (inactive) |  | 26 µM (inactive) | 14.9 µM (inactive) | 17.6 µM (inactive) | 20 µM (inactive) | 61.8 µM (inactive) | 19.1 µM (inactive) | 36.5 µM (inactive) | 17.8 µM (inactive) | 21 µM (inactive) | 21.8 µM (inactive) | 27.6 µM (inactive) |  | > 100 µM (inactive) | 20.7 µM (inactive) | 
11 | COc1ccccc1[C@@H]1CCC2CC[C@@H](c3ccccc3OC)[N+]21Cc1ccccc1 (stereo partly drawn) | 0.223 µM (active) | 2.25 µM (inactive) | 0.36 µM (active) | 4.49 µM (inactive) | 5.74 µM (inactive) | 1.34 µM (inactive) | 0.632 µM (active) | 1.64 µM (inactive) |  | 2.84 µM (inactive) | 2.33 µM (inactive) | 2.33 µM (inactive) | 3.3 µM (inactive) | 1.33 µM (inactive) | 2.24 µM (inactive) | 13 µM (inactive) |  | 3.56 µM (inactive) | 0.344 µM (active) | 2.15 µM (inactive)
